Here are results for 19 molecules from patent US5919811A, “3-Substituted-indole-2-carboxylic acid derivatives as excitatory amino acid antagonists” (Glaxo Wellcome S.p.A., priority 1995, dated 1999).

SMILES strings stand for the structures. pKi: −log10 of the molar value. Structures can show the parent of a compound that is named as a salt.

The first test deals with NMDA induced convulsions. The test is described as follows: inhibition of NMDA induced convulsions in the mouse (procedure of Chiamulera C et al). The conditions noted are these: iv, 0.1 mg/kg I.V., generalized seizures induced by intracerebroventricular injection of NMDA in mice. In kind it is in vivo. As to the method:
The ability of compounds of the invention to inhibit NMDA induced convulsions in the mouse was determined using the procedure of Chiamulera C et al. Psychpharmacology 1990, 102,-551-552. In this test the ability of the compound to inhibit the generalized seizures induced by an intracerebroventricular injection of NMDA in mice was examined. Thus the % inhibition of the NMDA induced convulsions when a compound of the invention was given the dose of 0.1 mg/kg I.V. was determined and representative results obtained for compounds of the invention are given in the following table.
Turning to `O=C(/C=C/c1c(C(=O)O)[nH]c2cc(Cl)cc(Cl)c12)Nc1ccc(CNC(=O)NC2CC2)cc1` [Example 31, (E)-4,6-dichloro-3-[-2'-(4'-cyclopropyl-ureido-methyl-phenylcarbamoyl)vinyl]-1H-indole-2-carboxylic acid sodium salt], the inhibition in vivo at 0.1 mg/kg was 40%.
As to `O=C(O)CNC(=O)NCc1ccc(NC(=O)/C=C/c2c(C(=O)O)[nH]c3cc(Cl)cc(Cl)c23)cc1` [Example 44, (E)-4,6-dichloro-3-[2'-(4'-carboxymethylureido-methyl-phenylcarbamoyl)ethenyl]-1H-indole-2-carboxylic acid], 0.1 mg/kg produced 40% inhibition in vivo.
On the same count and under the same terms, next, `NC(=O)NCCc1ccc(NC(=O)/C=C/c2c(C(=O)O)[nH]c3cc(Cl)cc(Cl)c23)cc1` [Example 19, 4,6-dichloro-3-[(E)-2'-(4'-ureidoethylphenylcarbamoyl)ethenyl]-1-H-indole 2-carboxylic acid,sodium salt]: 30%.
Same read-out and setting: next, `CCNC(=O)NCc1ccc(NC(=O)/C=C/c2c(C(=O)O)[nH]c3cc(Cl)cc(Cl)c23)cc1` [Example 12, (E)4,6-dichloro-3-[2'-(4'-ethylureidomethylphenylcarbamoyl)ethenyl]-1-H-indole 2-carboxylic acid,sodium salt]: 50%; `COc1ccc(NC(=O)NCc2ccc(NC(=O)/C=C/c3c(C(=O)O)[nH]c4cc(Cl)cc(Cl)c34)cc2)cc1` [Example 37, (E)-4,6-dichloro-3-{2'-[4'-(4"-methoxy-phenyl-ureidomethyl)-phenylcarbamoyl]ethenyl}-1H-indole-2-carboxylic acid]: 50%; `O=C(/C=C/c1c(C(=O)O)[nH]c2cc(Cl)cc(Cl)c12)Nc1ccc(CNC(=O)Nc2ccccc2)cc1` [Example 16, (E)4,6-dichloro-3-[2'-(4'-phenylureidomethylphenylcarbamoyl)ethenyl]-1-H-indole 2-carboxylic acid]: 30%.
On the same count and under the same terms, next, `CCNC(=S)NCc1ccc(NC(=O)/C=C/c2c(C(=O)O)[nH]c3cc(Cl)cc(Cl)c23)cc1` [Example 14, (E)4,6-dichloro-3-[2'-(4'-ethylthioureidomethylphenylcarbamoyl)ethenyl]-1-H-indole 2-carboxylic acid]: 30%; `CCOC(=O)CNC(=O)NCc1ccc(NC(=O)/C=C/c2c(C(=O)OCC)[nH]c3cc(Cl)cc(Cl)c23)cc1` [Example 43]: 40%.
In turn, `NC(=O)NCc1ccc(NC(=O)/C=C/c2c(C(=O)O)[nH]c3cc(Cl)cc(Cl)c23)cc1` [Example 9, (E)4,6-dichloro-3-[2'-(4'-ureidomethylphenylcarbamoyl)ethenyl]-1-H-indole 2-carboxylic acid,sodium salt] yielded an inhibition in vivo at 0.1 mg/kg of 60%.
The molecule `O=C(/C=C/c1c(C(=O)O)[nH]c2cc(Cl)cc(Cl)c12)Nc1ccc(CNC(=O)NC2CCOCC2)cc1` [Example 40, sodium salt] yielded an inhibition in vivo at 0.1 mg/kg of 40%.

Another test concerns the target T1, strychnine insensitive glycine binding site located on the NMDA receptor complex (Rattus norvegicus, UniProt P35439).
T1 construct: from tissue; host or cells: central nervous system membranes, rat
The test is described as follows: affinity for strychnine insensitive glycine binding site located on the NMDA receptor complex (procedure of Kishimoto H. et al).
Settings: not given
As to the method:
The potent and selective action of the compound of the invention at the strychnine- insensitive glycine binding site present on the NMDA receptor complex may be readily determined using conventional test procedures. Thus the ability to bind at the strychnine insensitive glycine binding site was determined using the procedure of Kishimoto H et al. J Neurochem 1981, 37 1015-1024. The selectivity of the action of compounds of the invention for the strychnine insensitive glycine site was confirmed in studies at other ionotropic known excitatory amino acid receptors.
The affinity of a compound of the invention for strychnine insensitive glycine binding site located on the NMDA receptor complex was determined using the procedure of Kishimoto H. et al J. Neurochem 1981, 37, 1015-1024. The pKi with representative compounds of the invention are given in […]
`O=C(/C=C/c1c(C(=O)O)[nH]c2cc(Cl)cc(Cl)c12)Nc1ccc(NC(=O)Nc2cccnc2)cc1` [Example 51, 4,6-dichloro-3-[(E)-2'-(4'-nicotin-3-ylureidophenylcarbamoyl)ethenyl]-1-H-indole2-carboxylic acid]: the pKi was 8.41.
The same measure, in the same setting: to `NC(=O)NCc1ccc(NC(=O)/C=C/c2c(C(=O)O)[nH]c3cc(Cl)cc(Cl)c23)cc1` [Example 8, (E)4,6-dichloro-3-[2'-(4'-ureidomethylphenylcarbamoyl)ethenyl]-1-H-indole2-carboxylic acid] belongs 8.60.
The same measure, in the same setting: next, `O=C(/C=C/c1c(C(=O)O)[nH]c2cc(Cl)cc(Cl)c12)Nc1ccc(NC(=O)Nc2ccccc2)cc1` [Example 24, (E)-4,6-dichloro-3-[2'-(4'-phenyl-ureido-phenylcarbamoyl)ethenyl]-1H-indole-2-carboxylic acid]: 7.40.
The same measure, in the same setting: next, `O=C(/C=C/c1c(C(=O)O)[nH]c2cc(Cl)cc(Cl)c12)Nc1ccc(NC(=O)NC2CCOCC2)cc1` [Example 52, 4,6-dichloro-3-[(E)-2'-(4'-(-tetrahydropyran-4"-yl)-ureidophenylcarbamoyl)ethenyl]-1-H-indole-2-carboxylic acid sodium salt]: 8.30.
For `O=C(/C=C/c1c(C(=O)O)[nH]c2cc(Cl)cc(Cl)c12)Nc1ccc(NC(=O)NC2CC2)cc1` [Example 50, 4,6-dichloro-3-[(E)-2'-(4'-cyclopropylureidophenylcarbamoyl)ethenyl]-1-H-indole-2-carboxylic acid sodium salt], the pKi was 8.50.
In the case of `CN(C)C(=O)Nc1ccc(NC(=O)/C=C/c2c(C(=O)O)[nH]c3cc(Cl)cc(Cl)c23)cc1` [Example 27, (E)-4,6-dichloro-3-[2'-(4'-dimethyl-ureido-phenylcarbamoyl)ethenyl]-1H-indole-2-carboxylic acid], the pKi was 8.41.
Same read-out and setting: next, `NC(=O)NCc1cccc(NC(=O)/C=C/c2c(C(=O)O)[nH]c3cc(Cl)cc(Cl)c23)c1` [Example 34]: 8.61.
`O=C(/C=C/c1c(C(=O)O)[nH]c2cc(Cl)cc(Cl)c12)Nc1ccc(CNC(=O)Nc2ccccc2)cc1` [Example 16, (E)4,6-dichloro-3-[2'-(4'-phenylureidomethylphenylcarbamoyl)ethenyl]-1-H-indole 2-carboxylic acid] had a pKi of 7.70.
Still for that read-out and setting: to `NC(=O)Nc1ccc(NC(=O)/C=C/c2c(C(=O)O)[nH]c3cc(Cl)cc(Cl)c23)cc1` [Example 21, 4,6-dichloro-3-[(E)-2'-(4'-ureidophenylcarbamoyl)ethenyl]-1-H-indole2-carboxylic acid,] belongs 8.74.
`O=C(/C=C/c1c(C(=O)O)[nH]c2cc(Cl)cc(Cl)c12)Nc1ccc(CNC(=O)NC2CCOCC2)cc1` [Example 39] had a pKi of 8.04.

What is called inhibition in vivo is the relative decrease from the control value, in per cent. Lower therefore signals little suppression. Broadly, the pKi is the Ki on a negative log10 scale, so that one unit is a factor of ten.
